Data from article PMC5057504, “Amyloid-β 1–24 C-terminal truncated fragment promotes amyloid-β 1–42 aggregate formation in the healthy brain” (Acta Neuropathologica Communications, 2016).

Assays:
wt mice brain = experiment: Intracranial injection in wt mice: amyloid aggregate deposition (6E10 DAB, Congo red, ThT staining); format: in vivo, mouse; conditions: for ThT-positive aggregates in brain sections: 2.5 months after i.c. injection; for 6E10-positive aggregates in brain, 6 months after injection: i.c. injection of oligomeric peptide, 6E10 followed by HRP
Description: Mice were anesthetized and perfused with 0.9 % saline, followed by 4 % PFA. The 30 μm cryosections of brain were blocked in PBS containing 10 % goat serum and 0.1 % Triton X-100 for 1 h at room temperature before being incubated overnight at 4 °C with primary antibodies. The following day, the slides were rinsed in PBS and incubated at room temperature for 1 h with secondary antibody. The slides were processed using the ABC detection kit (Vector Laboratories). […] Immunofluorescence and ThT staining were performed on brain sections. Brain slices were washed three times in PBS and incubated for 1 h at room temperature in blocking solution (3 % BSA). Subsequently, the slides were washed 3 times and incubated overnight with specific antibodies. The next day, sections were washed in PBS and incubated for 2 h at room temperature with specific fluorochrome-conjugated secondary antibodies diluted in 3 % BSA in the dark. ThT solution was prepared as described above. Final solution was added to free floating slides for 1 min and very quickly washed with 80 % methanol followed by 3 washes with distilled water. Images were acquired by Virtual Slides microscope (VS120, Olympus). For quantification, both diffuse-plaques and dense-core plaques were considered, as described in [92]. Small dots and deposits at the slice edge were not counted. The entire surface of the slice was examined. For congo red histological staining, slices were air-dried on glass overnight, then stained with a 0.2 % congo red solution according to [93]. Specimens were acquired by transmittance polarized light microscopy, FITCH filtered epifluorescence. For quantification, bright field images were analyzed by color segmentation plugin-ImageJ software (NIH, Bethesda, MD). The entire area of deposits was considered.

[1] = ATR-FTIR spectroscopy of peptide assemblies; format: physicochemical; conditions: 100 μM peptide (mix 50 μM each), incubated at 37 °C in PBS, 20 min to 6 days; hydrated film
Description: The in vitro aggregation of Aβ samples was monitored by ThT assay (Fig. 6a–c). ThT fluorescence emission was recorded at different incubation times at 37 °C in physiological buffer. […] Further, we recorded the emission fluorescence spectra of the samples incubated for 96 h at 37 °C after tyrosine excitation at 270 nm, which is also able to produce ThT fluorescence. […] The secondary structures of the peptide assemblies were also investigated by Fourier transform infrared (FTIR) spectroscopy in attenuated total reflection (ATR) (Fig. 6d). […] During incubation at 37 °C of H-Aβ42, this component increased in intensity while that at ~1695 cm^−1 decreased (Fig. 6d). These spectral changes have been already observed in the fibrillogenesis of Aβ peptides and of other proteins, and assigned to the conformational conversion towards fibrillar structures with a parallel orientation of the intermolecular β-sheets. […]
For the ATR-FTIR measurements, 2 μL of Aβ42 (at 100 μM concentration), of Aβ24 (at 100 μM concentration), or of the equimolar mixture of the two peptides (at 50 μM concentration each) were deposed on the single reflection diamond element of the ATR device (Quest, Specac, UK). Spectra were recorded after solvent evaporation to allow the formation of an hydrated film as previously described. […]

TNF-alpha = TNF-alpha ELISA in serum and brain of intracranially injected wt mice; format: in vivo, mouse; conditions: wt mice 2.5 months after i.c. injection
Description: Stereotaxic intracranial injections in mice brains were made under a mixture of ketamine (100 mg/kg) and xylazine (10 mg/kg) anesthesia. After surgical exposure of dura mater, both the bregma and the skull surface served as the stereotaxic zero points. Using a Hamilton syringe, 4 μL of H-Aβ or vehicle (vehicle consists of physiological buffer−50 mM NaPi, 100 mM NaCl pH 7.4−) were injected into the neocortex (AP 1 mm, ML 2 mm, DV−2 mm) with a speed of 1.5 μL/min, the needle was kept in place for an additional minute before it was slowly drawn out. For each experiment 4 pmol of H-Aβ42, 4 pmol of H-Aβ24 and 2 pmol of H-Aβ42 plus 2 pmol of H-Aβ24 for the mix condition were injected, as described in [70, 90]. Different conditions were used for specific experiments as specified in the text. After suturing the incision, mice were maintained on a warm pad until recovery from the anesthesia, then returned to their cages.

wt mice = experiment: Behavioral tests (open field, social interaction, novel object recognition) after intracranial injection; format: in vivo, mouse; conditions: wt mice i.c. injected, compared with vehicle and age matched APP/PS1 mice
Description: Mice were placed in a multi-unit open field maze (ViewPoint instruments) with field chamber (25 cm long and 25 cm wide), and activity was recorded using ViewPoint video tracking software. Each quadrant was digitally divided into a peripheral and a central region using ViewPoint video tracking software. The central quadrants are collectively referred to as the center zone and peripheral quadrants are collectively referred to as the peripheral zone. Data were collected continually for 30 min and the distance traveled (cm), velocity (cm/s), and the distance traveled in the center zone versus the peripheral zone were all recorded and scored automatically. In the open field task ambulatory movements (valued as distance traveled and movement speeds) and anxiety-like behaviors (as the as distance traveled in the center zone versus the peripheral zone) can be assessed in response to a novel environment.
The social interaction test was used to measure how mice respond to a social partner during a 5-min test following isolation housing. Since isolation housing potentiates expression of innate territorial defensive responses, in this test we evaluated the reaction of mice to the presence of a new animal in free conditions in the same arena. […]
The test apparatus consisted of an open field box measuring 50 cm × 25 cm and all sessions were video-recorded. […]

murine Aβ = molecular target: T1, murine Aβ (Mus musculus, UniProt P12023); experiment: Immunoblot of brain homogenate fractions with murine-Aβ-specific antibody m3.2; format: in vivo; conditions: wt mice analyzed 4 months after i.c. injection; supernatant and pellet
T1 construct: co-aggregation of the injected peptide and endogenously produced mouse Aβ42, retained in the brain; from tissue; host or cells: brain homogenate (supernatant and pellet fractions) of injected wild-type mice
Description: Animals were anesthetized and perfused with PBS before brains were removed, weighted and homogeneted in a mild hypotonic buffer (50 mM Tris pH 8, 150 mM NaCl, 5 mM EDTA supplemented with phosphatase and protease inhibitor, EDTA-free, Roche). Supernatants were then centrifuged for 1 h at 3000 × g to pellet insoluble material, including insoluble Aβ species. Samples were either frozen on dry ice or LDS sample buffer (Invitrogen) containg 5 % β-mercaptoethanol was immediately added. Pellets were directly resuspended in 20 μl of LDS sample buffer. 10 μl sample were loaded onto a Bolt 4–12 % Bis-Tris Plus Gels (Thermo Fisher) for Western Blot evaluation. Samples were separated using MES buffer and transferred onto a […] nitrocellulose membrane (Bio-Rad). Membranes were washed in TBS-Tween (150 mM NaCl, 50 mM Tris and 0.1 % (v/v) Tween-20) and incubated for 45 min at room temperature in blocking solution (5 % milk or 2.5 % serum bovine albumin in TBST). Membranes were subsequently probed overnight at 4 °C with primary antibodies diluted in TBS-T buffer. Membranes were washed extensively and incubated for 45 min at room temperature with horseradish peroxidase-conjugated (HRP) secondary antibody diluted in TBST buffer. Antibody-specific signals were detected using enhanced chemiluminescence reagents (Clarity Western ECL substrate, Bio-Rad).

T1 sequence (P12023 672-713 limits assumed): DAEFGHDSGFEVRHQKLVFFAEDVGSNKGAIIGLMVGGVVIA
Description for bEnd.3 cells: (ATCC® CRL2299™) were used as a representative BBB model. bEnd.3 cells were cultured at 37 °C, 5 % CO2/saturated humidity in DMEM supplemented with 10 % heat-inactivated fetal bovine serum (FBS), 1 % penicillin-streptomycin.
bEnd.3 cells were seeded at a concentration of 30000 cells/cm^2 onto geltrex-coated (thin layer; Gibco) transwell inserts (polycarbonate, 12 mm diameter, 3 μm pore size; Costar) until a monolayer was established.
To assess Aβ42 exchange across the BBB model, bEnd.3 cells were cultured upside-down on a transwells system as described above, until steady-state TEER had been reached. […] The level of fluorescence in the media collected was measured for 488-Aβ42 (λex = 503 nm and λem = 528 nm) or for FAM-Aβ42 (λex = 492 nm and λem = 518 nm) using a Synergy™ H4 Hybrid Multi-Mode Microplate Reader (BioTek). Relative fluorescence units were converted to concentration according to prepared standard, and were corrected for background fluorescence. […] Briefly, Aβ42 volume cleared (ΔVc) was calculated using the equation ΔVc = Clower × Vlower/Cupper, where Cupper and Clower are fluorescently-labeled Aβ42 concentrations in the donor and receiving compartments, respectively, and Vlower is the volume on the basolateral side. […] Permeability coefficients (P) were calculated by dividing against the surface area of the filter (1.12 cm^2). […]
Description for primary microglia: Primary microglia were obtained from mixed cultures prepared from the cerebral cortex of mice at the postnatal day 1 (P1-3). Microglia cells were isolated by shaking flasks for 45 min at 230 rpm at day 10 after plating. Cells were then seeded on poly-L-ornithine (Sigma) pre-coated wells at the density of 1,5×10^5 cell/mL in DMEM containing 20 % heat-inactivated fetal bovine serum (FBS) and incubated at 37 ° C in a humidified atmosphere of 5 % CO2 and 95 % air. Where indicated, cells were pre-treated for 45 min with protease inhibitors and EDTA 2.5 mM (Roche) which were directly added to the cell culture medium. […] When not differently indicated, for in vitro experiments microglia were treated with H-Aβ42 400 nM.
Aliquots of supernatant samples (200 μL) were loaded on nitrocellulose membrane Trans-Blot Transfer Medium (0.22 μm, Bio-Rad), by vacuum deposition on the Bio-Dot SF blotting apparatus (Bio-Rad). Serial dilution curves of Aβ42 synthetic protein were preliminarily run to obtain non-saturating condition of immunodetection. DB dots images were analysed by Image Lab™ software (Bio-Rad).
Aβ42 levels were determined using specific ELISA kit (Amyloid-beta (x-42) ELISA IBL, International) following manufacturer’s instructions. Briefly, 100 μL of sample was added into the pre-coated plate and was incubated overnight at 4 °C. After washing each well of the pre-coated plate, 100 μL of labeled antibody solution was added and the mixture was incubated for 1 h at 4 °C in the dark. After washing, chromogen was added and the mixture was incubated for 30 min at room temperature in the dark. After the addition of stop solution, the resulting color was assayed at 450 nm using a microplate absorbance reader (Synergy H4 Synergy™ H4 Microplate Reader, BioTek).

| Substance | Internalization by microglia (primary microglia; primary microglia, 1 μM, 3 h of treatment) | ThT-positive aggregates in brain sections (wt mice brain) | 6E10-positive aggregates in brain, 6 months after injection (wt mice brain; 4 pmol (mix 2 + 2 pmol)) | ATR-FTIR Amide I band (secondary structure of the assemblies) [1] | TNF-alpha levels in serum and brains (TNF-alpha) | Behavioral phenotype (open field, sociality task, NOR) (wt mice) | Extracellular Aβ42 in microglia medium, ELISA with capture antibody 6E10 (N-terminal), detection 4G8 (primary microglia) | Extracellular Aβ42 in microglia medium, ELISA with capture antibody against the C-terminal domain (primary microglia) | Extracellular Aβ42 in microglia medium, dot blot with C-terminal anti-Aβ42 (primary microglia) | 6E10-positive aggregates in brain, 2.5 months after injection (wt mice brain; i.c. injection, 4 pmol (mix 2 + 2 pmol)) | Effect of H-Aβ24 on the diffusion of fluorescently labeled scrambled H-Aβ42 (bEnd.3 cells) | H-Aβ42 apical-to-basolateral passage when pre-incubated with H-Aβ24, dot blot (bEnd.3 cells) | m3.2 positive bands (murine Aβ) in brain homogenate fractions (murine Aβ) |
| --- | --- | --- | --- | --- | --- | --- | --- | --- | --- | --- | --- | --- | --- |
| HiLyte Fluor™ 488-labeled Beta-Amyloid (1–42) [488-conjugated H-Aβ42] | efficiently internalized | – | – | – | – | – | – | – | – | – | – | – | – |
| Synthetic human Aβ1–42 [H-Aβ42] | – | only ThT-positive blood vessels | did not cause Aβ deposition | higher intensity of the ~1628 cm^−1 peak | much less | some behavioral alterations | lack of changes | significant decrease | reduction of extracellular Aβ42 | – | – | – | – |
| synthetic human Aβ1-24 peptide [H-Aβ24] | – | ThT-positive aggregates were detected | induced the formation of aggregates | two main peaks at ~1695 cm^−1 and ~1628 cm^−1 | significant increase | cognitive defects comparable to APP/PS1 mice | – | – | – | already detectable | No effect | decreased amount of H-Aβ42 | presence of m3.2 positive bands |
